Here are results for 12 compounds from patent US20250333393A1, “HETEROCYCLIC COMPOUND AS TYK2 INHIBITOR, AND SYNTHESIS AND USE THEREOF” (ZHEJIANG WENDA PHARMACEUTICAL TECHNOLOGY CO., LTD., priority 2023, published 2025).

Like-named read-outs stand apart in the source and are kept apart here. A value given as a limit tells only on which side of the number the result lay.

The subject of one data set is pSTAT5 in CD3+ cells. In words: Inhibition of IFN-alpha induced pSTAT5 expression in CD3+ cells (human PBMC), FACS assay. It counts as cell-based. The conditions noted are these: IFN-α 20 ng/ml. As for the experimental part:
Test Example 1: The Inhibitory Effect of Compounds on the Expression of Pstat5 in CD3+ Cells Using FACS Assay
• DMSO, Sigma, Cat #D2650-100 mL, stored at room temperature. • Perm buffer III, BD Biosciences, Cat #558050, stored at 4° C. • Lyse/Fix buffer, BD Biosciences, Cat #558049, stored at room temperature. • EDTA, Invitrogen, Cat #15575-038, stored at room temperature. • PBS, Hyclone, Cat #SH30256.01, stored at 4° C. • PE Mouse Anti-Human CD3, BD Biosciences, Cat #555333, stored at 4° C. • Mouse anti-human Phospho-STAT5 (pY694) (Alexa Fluor® 647 Conjugate), • BD Biosciences, Cat #562076, stored at 4° C. • IFN-α, Biolegend, Cat #592702.
• 1) On the day of experiment, the compound was prepared into a 10 mM solution with DMSO, diluted to 1.5 mM in DMSO, and then diluted to 8 gradient concentrations in 3-fold dilutions Concentrations. • 2) 5 μL of the diluted compound was transferred into 120 ul of DPBS solution containing 0.1% BSA. • 3) Positive and negative control groups were set up, and 0.2% DMSO was added to the positive and negative control groups. 2.2 Experimental procedure • 1) 0.5 million and 67.5 ul of human PBMC cells was added to the 96-well cell culture plate per well. • 2) 3.5 ul of diluted compound was added and mixed well. • 3) Incubation was conducted in a 37° C. incubator for 60 minutes. • 4) IFN-alpha was diluted in DPBS containing 0.1% BSA to […], and PE anti-hCD3 antibody was diluted in DPBS containing 0.1% BSA to 3 fold. When the above 60-minute incubation was complete, diluted PE anti-hCD3 antibody was added at 5 ul per well and diluted IFN-α was added at 4 ul per well, i.e., the final concentration of IFN-α per well is 20 ng/ml. • 5) Incubation was conducted in a 37° C. incubator for 30 minutes. • 6) All cells were transferred to a 96-well deep well plate and 1 ml of 37° C. preheated lysis/fix buffer was added. • 7) Incubation was conducted at 37° C. in dark for 10 minutes. • 8) Centrifugation was carried out at 600 g for 5 minutes and then the supernatant was discarded. 1 ml PBS was added to wash for twice and then centrifuged. • 9) 1 ml of Perm buffer III was added to the cell precipitation. • 10) Incubation was conducted at 4° C. in dark for 30 minutes. • 11) Centrifugation was carried out at 600 g for 5 minutes and then the supernatant was discarded. 1 ml PBS was added to wash for twice and then centrifuged. • 12) APC anti-human pSTAT5 antibody was diluted in staining buffer by 200-fold, which was added to cell wells at 100 uL per well and mixed well. • 13) Incubation was conducted at room temperature for 40 minutes. • 14) Staining buffer was added to wash for twice with 1 mL for each well, and centrifugation was carried out at 600 g for 5 minutes. • 15) After discarding the supernatant, the cell precipitation was re-suspended in 300 μL of staining buffer. • 16) Sample loading and analysis were carried out in a flow cytometer. The IC50 of the samples to be tested was obtained from the above, Table 1.
For orientation: Flow cytometry measures light scatter and fluorescence of single cells or particles in a stream.

For another data set, the target named is TYK2 (JH1) (Homo sapiens (Human), UniProt P29597). In words: JAK family kinase experiment, TYK2 (JH1). Type of data set: biochemical. As for the experimental part: (§1) 1.2.1. The compound was dissolved with DMSO to a storage concentration of 10 mM.
(§2) 1.2.2. A compound concentration of 100 times the final concentration was prepared in a compound dilution plate, which was diluted from the highest concentration point with a total of 4 concentration points using the 27 times dilution method, and transferred to the Echo plate.
(§3) 1.2.3. The compound was flushed from the Echo plate to the 384 experimental plate using an Echo instrument, and the compound become 11 concentration points of the 3-fold dilution matrix.
(§4) 1.2.4. 2× kinase working solution was prepared, which was added to a 384-well experimental plate at 5 μl per well. The compound and the kinase were incubated at room temperature for 15 minutes.
(§5) 1.2.5. 5 ul of 2× substrate (containing ATP) was added to the 384 well plate.
(§6) 1.2.6. Incubation was conducted at room temperature for 45 minutes.
(§7) 1.2.7. The detection reagent mixture was added to the 384-well plate, and centrifuged for 30 seconds, and incubation was conducted at room temperature for 60 minutes.
(§8) 1.2.8. The signal values were read using Envision Microplate Reader (PerkinElmer).
(§9) 1.3.1. XL-Fit software was used for data analysis to obtain IC50 of the compounds, Table 2.

A further data set deals with TYK2(JH2) (Homo sapiens (Human), UniProt P29597). In words: Pseudo kinase experiment, TYK2 (JH2), tracer/Tb. It counts as binding. As for the experimental part:
(§10) 1.1.1. The compound was dissolved with DMSO to a storage concentration of 10 mM.
(§11) 1.1.2. A compound concentration of 200 times the final concentration was prepared in a compound dilution plate, which was diluted from the highest concentration point with a total of 4 concentration points using the 27 times dilution method, and transferred to the Echo plate.
(§12) 1.1.3. The compound was flushed from the Echo plate to the 384-well experimental plate using an Echo instrument, and the compound become 11 concentration points of the 3-fold dilution matrix.
(§13) 1.1.4. 5 μl of 3×TYK2(JH2) or JAK1(JH2) kinase was added to the 384-well experimental plate.
(§14) 1.1.5. 5 μl of 3×Tb was added to the 384-well experimental plate.
(§15) 1.1.6.5 μl of 3× Tracer was added to the 384-well experimental plate.
(§16) 1.1.7. Centrifugation was conducted for 30 seconds and incubation was carried out at room temperature for 60 minutes.
(§17) 1.1.8. The signal values were read using Envision Microplate Reader (PerkinElmer).
as §9

For the next data set, the target named is JAK1 (JH1) (Homo sapiens (Human), UniProt P23458). Nature of the data set: JAK family kinase experiment, JAK1 (JH1). It counts as biochemical. Here is the method: as §1, §2, §3, §4, §5, §6, §7, §8, §9
The next data set concerns the target JAK1(JH2) (Homo sapiens (Human), UniProt P23458). Nature of the data set: Pseudo kinase experiment, JAK1 (JH2), tracer/Tb. It counts as binding. As for the experimental part:
as §10, §11, §12, §13, §14, §15, §16, §17, §9

The target of another data set is JAK2 (JH1) (Homo sapiens (Human), UniProt O60674). Nature of the data set: JAK family kinase experiment, JAK2 (JH1). It counts as biochemical. Here is the method: as §1, §2, §3, §4, §5, §6, §7, §8, §9
For another data set, the target named is JAK3 (JH1) (Homo sapiens (Human), UniProt P52333). In words: JAK family kinase experiment, JAK3 (JH1). It counts as biochemical. Here is the method: as §1, §2, §3, §4, §5, §6, §7, §8, §9
Data set [1] can be described thus: Drug concentrations in plasma samples and brain tissue samples after oral administration, LC-MS/MS. Type of data set: in vivo, female C57BL/6 mice. The note with it: female, C57BL/6, mouse, 15 consecutive days, 2Hr after the last dose, mice; for Kp at 2 h: brain/plasma, read-out: Ratio (brain tissue to plasma concentration). Here is the method:
The purpose of the study was to evaluate drug concentrations in plasma samples and brain tissue samples of female C57BL/6 mice after 15 consecutive days of oral administration of 10 mg/kg, 30 mg/kg, and 90 mg/kg of Compound 4S. The drug concentrations of Compound 4S in plasma samples and brain tissue homogenate samples were detected by the positive ion (ESI) multi-reactive ion monitoring (MRM) scanning mode of LC-MS instrument with a linear range of 1-10000 ng/mL.
Plasma samples from 10 mice orally administered with Compound 4S: For standard curves, QC samples, single blanks, and unknown samples, the sample volume was 10 μL and each was added with 200 μL of methanol: acetonitrile=1:1 (v/v) precipitant (containing 5 ng/mL of Terfenadine). For double-blank samples, each was added with 200 μL of Methanol: Acetonitrile=1:1 (v/v) precipitant. The samples were vortexed for 1 min and centrifuged for 15 min (4000 rpm, 4° C.) to obtain the supernatant solution, which was diluted by 10-fold using methanol: water=1:1 (v/v, containing 0.1% FA) as the diluent solution and then subjected to LC-MS/MS analysis.
Brain tissue homogenate samples from 10 mice orally administered with Compound 4S: For standard curves, QC samples, single blanks, and unknown samples, the sample volume was 50 μL and each was added with 200 μL of methanol: acetonitrile=1:1 (v/v) precipitant (containing 5 ng/mL of Terfenadine). For double-blank samples, a 50 μL sample of blank brain tissue homogenate was taken and added with 200 μL of methanol/acetonitrile (1:1, v/v) precipitant. The samples were vortexed for 1 min and centrifuged for 15 min (4000 rpm, 4° C.) to obtain the supernatant solution, which was diluted by 10-fold using methanol: water=1:1 (v/v, containing 0.1% FA) as the diluent solution and then subjected to LC-MS/MS analysis. Drug exposures in plasma samples and brain tissue samples at different administered doses and at different frequencies of administration of the same administered dose were compared (Table 3).

TYK2 (JH1), sequence (P29597 897-1176): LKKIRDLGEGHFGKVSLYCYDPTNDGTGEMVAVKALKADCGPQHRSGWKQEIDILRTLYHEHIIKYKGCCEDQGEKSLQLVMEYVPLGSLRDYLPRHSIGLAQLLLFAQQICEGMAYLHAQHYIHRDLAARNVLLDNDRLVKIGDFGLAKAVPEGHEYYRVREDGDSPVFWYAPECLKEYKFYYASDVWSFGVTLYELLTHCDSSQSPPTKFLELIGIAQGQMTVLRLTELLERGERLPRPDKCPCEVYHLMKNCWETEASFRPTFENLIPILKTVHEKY
TYK2(JH2), sequence (P29597 589-875): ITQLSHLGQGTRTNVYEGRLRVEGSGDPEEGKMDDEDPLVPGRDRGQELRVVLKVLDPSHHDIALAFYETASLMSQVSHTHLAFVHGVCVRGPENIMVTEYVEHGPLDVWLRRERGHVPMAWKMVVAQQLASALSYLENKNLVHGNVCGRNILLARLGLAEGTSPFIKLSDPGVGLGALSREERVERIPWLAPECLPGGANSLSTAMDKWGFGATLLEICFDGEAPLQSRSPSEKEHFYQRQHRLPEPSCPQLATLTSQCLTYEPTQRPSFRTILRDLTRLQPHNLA
JAK1(JH2), sequence (P23458 583-855): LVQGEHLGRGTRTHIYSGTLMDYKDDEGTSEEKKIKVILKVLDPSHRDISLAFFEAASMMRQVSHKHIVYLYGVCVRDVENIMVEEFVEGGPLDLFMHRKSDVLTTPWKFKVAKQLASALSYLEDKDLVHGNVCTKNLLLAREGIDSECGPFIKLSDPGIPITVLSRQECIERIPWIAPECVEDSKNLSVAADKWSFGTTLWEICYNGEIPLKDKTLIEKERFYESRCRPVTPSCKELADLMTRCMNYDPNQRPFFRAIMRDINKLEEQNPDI
JAK1 (JH1), sequence (P23458 875-1153): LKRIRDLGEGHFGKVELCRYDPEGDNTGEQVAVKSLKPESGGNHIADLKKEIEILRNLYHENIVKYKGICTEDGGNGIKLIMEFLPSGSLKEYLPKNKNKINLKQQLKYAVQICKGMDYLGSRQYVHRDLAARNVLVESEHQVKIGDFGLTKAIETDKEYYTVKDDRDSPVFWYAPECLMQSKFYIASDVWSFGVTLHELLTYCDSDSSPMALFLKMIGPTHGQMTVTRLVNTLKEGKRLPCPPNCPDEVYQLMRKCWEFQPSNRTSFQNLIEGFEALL
JAK3 (JH1), sequence (P52333 822-1111): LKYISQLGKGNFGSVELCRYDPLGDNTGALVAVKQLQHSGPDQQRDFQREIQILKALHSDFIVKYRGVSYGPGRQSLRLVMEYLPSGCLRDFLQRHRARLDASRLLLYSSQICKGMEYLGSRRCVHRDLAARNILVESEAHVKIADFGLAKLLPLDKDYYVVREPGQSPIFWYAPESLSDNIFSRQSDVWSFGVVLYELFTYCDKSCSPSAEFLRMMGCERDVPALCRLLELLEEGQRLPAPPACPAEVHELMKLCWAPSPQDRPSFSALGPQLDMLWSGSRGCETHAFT
JAK2 (JH1), sequence (O60674 849-1124): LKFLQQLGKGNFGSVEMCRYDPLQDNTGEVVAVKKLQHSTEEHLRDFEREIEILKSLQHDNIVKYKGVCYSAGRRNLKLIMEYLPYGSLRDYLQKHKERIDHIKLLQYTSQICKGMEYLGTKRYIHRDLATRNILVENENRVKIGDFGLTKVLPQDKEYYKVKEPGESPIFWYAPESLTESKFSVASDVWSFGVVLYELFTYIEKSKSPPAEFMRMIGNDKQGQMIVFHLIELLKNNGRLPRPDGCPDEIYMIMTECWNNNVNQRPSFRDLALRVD

By IC50 is commonly meant the midpoint of a concentration-inhibition curve. A low value points to inhibition by little substance. Take `CCC(=O)c1cnc(NC(=O)[C@@H]2CC23CC3)cc1Nc1nc(C)cc(-c2cnn(C)n2)c1OC` [Compound 6R]: in the data set with pSTAT5 in CD3+ cells, the IC50 was less than 50 nM.

In turn, `CCC(=O)c1cnc(NC(=O)[C@H]2CC23CC3)cc1Nc1nc(C)cc(-c2cnn(C)n2)c1OC` [Compound 6S] gave a concentration for half-maximal inhibition (IC50) in the data set with pSTAT5 in CD3+ cells of less than 50 nM.

Consider `[2H]C([2H])([2H])n1ncc(-c2ccnc(Nc3cc(NC(=O)[C@@H]4CC45CC5)ncc3C(=O)CC)c2OC)n1` [Compound 3R], for which, in the data set with pSTAT5 in CD3+ cells, the IC50 is less than 50 nM.

Regarding `[2H]C([2H])([2H])n1ncc(-c2ccnc(Nc3cc(NC(=O)[C@H]4CC45CC5)ncc3C(=O)CC)c2OC)n1` [Compound 3S], the IC50 with pSTAT5 in CD3+ cells was less than 50 nM.

As for `[2H]C([2H])([2H])Oc1c(-c2cnn(C)n2)ccnc1Nc1cc(NC(=O)[C@H]2CC23CC3)ncc1C(=O)CC` [Compound 4S], the IC50 in the data set with pSTAT5 in CD3+ cells was less than 50 nM; at TYK2 (JH1), more than 9900 nM; on TYK2(JH2) it was 0.29 nM; against JAK1 (JH1) it was more than 9900 nM; against JAK1(JH2), 22 nM; against JAK2 (JH1), 5420 nM. This compound also gave an IC50 at JAK3 (JH1) of more than 9900 nM. Besides, the concentration at 2 h came to 615 ng/mL in data set [1] (brain, 10 mg/kg, 10 mg QD oral, read-out: concentration in brain); 2360 ng/mL in data set [1] (brain, 30 mg/kg, 30 mg BID oral, read-out: concentration in brain); 2360 ng/mL in data set [1] (brain, 30 mg/kg, 30 mg QD oral, read-out: concentration in brain); 6260 ng/mL in data set [1] (brain, 90 mg/kg, 90 mg QD oral, read-out: concentration in brain); 784 ng/mL in data set [1] (plasma, 10 mg/kg, 10 mg QD oral, read-out: concentration in plasma); 2740 ng/mL in data set [1] (plasma, 30 mg/kg, 30 mg BID oral, read-out: concentration in plasma). Moreover, the concentration at 2 h in data set [1] (plasma, 30 mg/kg, 30 mg QD oral, read-out: concentration in plasma) is 2040 ng/mL; in data set [1] (plasma, 90 mg/kg, 90 mg QD oral, read-out: concentration in plasma), 4720 ng/mL. Besides, the Kp at 2 h in data set [1] (10 mg/kg, 10 mg QD oral) worked out at 0.788; in data set [1] (30 mg/kg, 30 mg BID oral), 0.88; in data set [1] (30 mg/kg, 30 mg QD oral), 1.11; in data set [1] (90 mg/kg, 90 mg QD oral) it was 1.32.

`CCC(=O)c1cnc(NC(=O)[C@H]2CC23CC3)cc1Nc1nccc(-c2cnn(C)n2)c1OC` [Compound 1S] returned an IC50 in the data set on pSTAT5 in CD3+ cells of less than 50 nM.

`CCC(=O)c1cnc(NC(=O)[C@@H]2CC23CC3)cc1Nc1cccc(-c2cnn(C)n2)c1OC` [Compound 2R]: the IC50 in the data set on pSTAT5 in CD3+ cells was more than 50 nM.

Compound `[2H]C([2H])([2H])Oc1c(-c2cnn(C)n2)ccnc1Nc1cc(NC(=O)[C@@H]2CC23CC3)ncc1C(=O)CC` [Compound 4R] displayed an IC50 in the data set on pSTAT5 in CD3+ cells of more than 50 nM.

For the compound `CCC(=O)c1cnc(NC(=O)[C@H]2CC23CC3)cc1Nc1cccc(-c2cnn(C)n2)c1OC` [Compound 2S], the IC50 with pSTAT5 in CD3+ cells is more than 50 nM.

With `[2H]C([2H])([2H])Oc1c(-c2cnn(C([2H])([2H])[2H])n2)ccnc1Nc1cc(NC(=O)[C@H]2CC23CC3)ncc1C(=O)CC` [Compound 5S], in the data set with pSTAT5 in CD3+ cells, the IC50 is less than 50 nM.

In the data set with pSTAT5 in CD3+ cells, `[2H]C([2H])([2H])Oc1c(-c2cnn(C([2H])([2H])[2H])n2)ccnc1Nc1cc(NC(=O)[C@@H]2CC23CC3)ncc1C(=O)CC` [Compound 5R] registered an IC50 of more than 50 nM.

As for `CCC(=O)c1cnc(NC(=O)[C@@H]2CC23CC3)cc1Nc1nccc(-c2cnn(C)n2)c1OC` [Compound 1R], in the data set on pSTAT5 in CD3+ cells, the IC50 was more than 50 nM.
